In ChEMBL document CHEMBL3232749, “Exploring the water-binding pocket of the type II dehydroquinase enzyme in the structure-based design of inhibitors” (J Med Chem, 2014) one finds Ki data, which are given here for 6 compounds.

For experiment [1], the target named is T1, 3-dehydroquinate dehydratase (Helicobacter pylori (strain ATCC 700392 / 26695) (Campylobacterpylori), UniProt Q48255).
T1 sequence (Q48255 whole entry): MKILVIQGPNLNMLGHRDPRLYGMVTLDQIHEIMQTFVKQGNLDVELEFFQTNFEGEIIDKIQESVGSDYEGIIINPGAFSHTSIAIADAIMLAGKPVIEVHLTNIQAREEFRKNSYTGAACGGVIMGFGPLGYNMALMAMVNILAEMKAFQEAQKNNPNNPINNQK
Kind of experiment: Reversible competitive inhibition of Helicobacter pylori DHQ2 assessed as conversion of 3-dehydroquinic acid to 3-dehydroshikimic acid by Dixon plot analysis.

A short description of experiment [2]: Reversible competitive inhibition of Mycobacterium tuberculosis DHQ2 assessed as conversion of 3-dehydroquinic acid to 3-dehydroshikimic acid by Dixon plot analysis.

Turning to `O=C(O)[C@]1(O)C=C([C@@H](Cl)Cc2ccccc2)[C@@H](O)[C@H](O)C1`, the Ki (usually a measure of affinity in units of concentration, obtained from inhibition or displacement) in experiment [1] came out at 40.5 µM; in experiment [2], 14.5 µM.

`O=C(O)[C@]1(O)C=C([C@@H](O)Cc2ccccc2)[C@@H](O)[C@H](O)C1`: the Ki worked out at 37 µM in experiment [1] and 34 µM in experiment [2].

With `O=C(O)[C@]1(O)C=C(CO)[C@@H](O)[C@H](O)C1`, the inhibition constant (Ki) in experiment [1] came out at 282 µM; in experiment [2], 11.2 µM.

For the compound `O=C(O)[C@]1(O)C=C([C@H](Cl)Cc2ccccc2)[C@@H](O)[C@H](O)C1`, the Ki in experiment [1] was 10.5 µM; in experiment [2], 0.48 µM.

For the compound `O=C(O)[C@]1(O)C=C(CCO)[C@@H](O)[C@H](O)C1`, the Ki in experiment [1] is 188 µM; in experiment [2], 15 µM.

Take `O=C(O)[C@]1(O)C=C([C@H](O)Cc2ccccc2)[C@@H](O)[C@H](O)C1`: the Ki in experiment [1] was 33 µM; in experiment [2], 27 µM.
